The values that follow are results of earlier work, collected in patent US10760135B2, “Methods for predicting pancreatic cancer treatment response” (priority 2016, dated 2020).

Each structure is given as a SMILES string. Where a name gives a salt, the structure may show the parent alone.

The test system of the data set is advanced PDAC. The following applies: first-line treatment, patients with advanced PDAC.

As for `Nc1ccn([C@@H]2O[C@H](CO)[C@@H](O)C2(F)F)c(=O)n1` [Gemcitabine, 1-(2′-Deoxy-2′,2′-difluoro-[beta]-D-ribofuranosyl)-4-aminopyrimidin-2-one hydrochloride], the 5-year survival rate is recorded as 2%.
